The record followed here is US6218112A, “Optimization of gene delivery and gene delivery system” (Cobra Therapeutics Limited, priority 1997, dated 2001).

Where two headings read alike, the source gives them in different places. * marks the point of attachment. Acm = CC(=O)NC*

Assay [1] has as its system Jurkat cell line. The experiment in a line: In vitro transfection with pRSVLuc (luciferase) condensed on peptides. Particulars: peptide 2 μg/μg plasmid DNA, luciferase after 24 h, FIG. 7. The format is cell-based. The protocol: After incubation the cells are lysed and are assayed for gene expression. In the case of the luciferase reporter gene, luciferin and ATP are added to lysed cells and the light emitted is measured with a luminometer (see deWet et al., supra).
Cell lines such as Jurkat and K562 grow in suspension and can be transfected and the level of transgene expression (luciferase activity) determined b) the following method. Cells are harvested on the day of assay by centrifugation at 1200 rpm for 5 mins at room temperature. The cell pellet is resuspended in phosphate buffered saline and re-centrifuged. This operation is performed twice. […] The cells are then aliquoted into tubes and 0.75 ml of RPMI medium added, followed by 0.04-0.08 ml of 100 mM Chloroquine and finally 0.25 ml of DNA-complex solution. The transfection is then allowed to proceed by incubating the cells at 37° C. for 4 h. After this time the cells are harvested by centrifugation at 2000 rpm. The cells are then suspended in 1 ml of RPMI medium and re-centrifuged. Finally the cells are suspended in 0.5 ml RPMI medium containing 10% foetal bovine serum. Each 0.5 ml of transfected cell suspension is transferred to a well of a 12 well plastic culture plate containing 1.5 ml of RPMI 10% FBS. The original transfection tube is rinsed with a further 1 ml of medium and the wash transferred to the culture dish making a final volume of 3 ml. The culture plate is then incubated at 37° C. for 24-90 h in an atmosphere of 5% CO2. The contents of each well in the culture dish are transferred to centrifuge tubes and the cells collected by centrifugation at 13000 rpm. The pellet is resuspended in 0.12 ml of Lysis Buffer (100 mM sodium phosphate, pH 7.8; 8 mM magnesium chloride, 1 mM EDTA; 1% Triton X-100 and 15% glycerol) and agitated with a pipette. The lysate is centrifuged at 13000 rpm for 1 min and the supernatant collected. 80 μl of the supernatant are transferred to a luminometer tube. The luciferase activity is then assayed using a Berthold Lumat L9501 luminometer. The assay buffer used is Lysis Buffer containing 10 mM Luciferin and 100 mM ATP. Light produced by the luciferase is integrated over 4s and is described as relative light units (RLU). The data are converted to RLU/ml of lysate, RLU/cell or RLU/mg protein (protein concentration of the lysate having been determined in this case by the BioRAD Lowry assay.
In order to compare the relative efficiency of transfection of complexes composed of different NBC condensation peptides or poly-L-lysine, pRSVLuc DNA at a concentration of 100 μg/ml was condensed using peptide at a ratio of 2 μg/μg plasmid DNA as described herein with the following deviation: prior to addition to the cells (Jurkat cell line) the complexes were diluted to 20 μg/ml with 10% PEG 10 000; 37 mM sodium chloride; 25 mM sodium phosphate, pH 7.4. The cells were assayed for luciferase after 24 h.

The test system of assay [2] is plasmid nucleic acid pRSVLuc. The experiment in a line: Surface plasmon resonance (BIAcore) binding kinetics of peptides/conjugates to immobilized biotinylated plasmid DNA. The following applies: for ka: apparent rate constant for association; for Kd: read-out: equilibrium dissociation constant KD. In general terms: SPR reads the build-up and loss of mass on a sensor chip optically.

Assay [3] concerns cells. The experiment in a line: Transfection efficiency / activity of complexes (general statement). The format is cell-based. The following applies: related to affinity for nucleic acid.

Consider “NH2-KKSPKKAKKPAAKKSPKKAKKPAYC(Acm)-COOH (H-KKSPKKAKKPAAKKSPKKAKKPAYC(Acm)-OH; SMILES CC(=O)NCSC[C@H](NC(=O)[C@H](Cc1ccc(O)cc1)NC(=O)[C@H](C)NC(=O)[C@@H]1CCCN1C(=O)[C@H](CCCCN)NC(=O)[C@H](CCCCN)NC(=O)[C@H](C)NC(=O)[C@H](CCCCN)NC(=O)[C@H](CCCCN)NC(=O)[C@@H]1CCCN1C(=O)[C@H](CO)NC(=O)[C@H](CCCCN)NC(=O)[C@H](CCCCN)NC(=O)[C@H](C)NC(=O)[C@H](C)NC(=O)[C@@H]1CCCN1C(=O)[C@H](CCCCN)NC(=O)[C@H](CCCCN)NC(=O)[C@H](C)NC(=O)[C@H](CCCCN)NC(=O)[C@H](CCCCN)NC(=O)[C@@H]1CCCN1C(=O)[C@H](CO)NC(=O)[C@H](CCCCN)NC(=O)[C@@H](N)CCCCN)C(=O)O) [NBC8]”, for which the “rank in order of relative transfection efficiency (most to least efficient)” value in assay [1] is on record as “NBC11>NBC13>NBC8>>NBC15>>>polylysine”. Besides, in assay [2] (SPR, PBS, 25° C.), the ka worked out at 50000 M⁻¹ s⁻¹. Further, the kd in assay [2] (apparent rate constant for dissociation, SPR, PBS, 25° C.) is 0.06248 s⁻¹. In assay [2] (approximate values), the “apparent dissociation constant kd” value is given as “approximately 1×10^-2 sec^-1” and the Kd was about 1000 nM.

As to “NH2-TKKAWKKAEKKAAKKCGVSAKKAAKKAWKKA-CONH2 (H-TKKAWKKAEKKAAKKCGVSAKKAAKKAWKKA-NH2) [NBC11]”, the transfection efficiency entry in assay [3] is “not completely deleterious to transfection”. Besides, in assay [1], the “rank in order of relative transfection efficiency (most to least efficient)” value is on record as “NBC11>NBC13>NBC8>>NBC15>>>polylysine”. The ka in assay [2] (SPR, PBS, 25° C.) is 20700 M⁻¹ s⁻¹. In assay [2] (approximate value, unit inferred), the Kd is about 0.5 nM. For the same substance, in assay [2] (approximate values), the “apparent dissociation constant kd” value was “approximately 1.6×10^-4 sec^-1”. Besides, in assay [2] (shape of association kinetics), the association reaction entry is reported as “clear biphasic kinetics”.

Usually Kd stands for the constant that tells how readily two partners part at equilibrium.
